Experiments:
Mouse B16 melanoma cell [1] = test: Quantification of the number of cells (alamarBlue), cell growth / cell toxicity; type: cell-based
Description: (§1) Mouse B16 melanoma cell was used. The cells were inoculated at 1×10^5 cells/well to a 6-well plate, and cultured with using a commercially available medium (trade name: EAGLE MEM, manufactured by Nissui Pharmaceutical Co., Ltd.) supplemented with 10% fetal bovine serum. The cells were cultured at 37° C., 5% CO2 and under completely saturated water-vapor atmosphere.
(§2) For determining the effect of hydroxyproline on cell growth and melanin content reduction, after culturing the cells for 24 hours, stock solutions of 4-trans-L-hydroxyproline, 4-trans-D-hydroxyproline, 4-cis-L-hydroxyproline or 4-cis-D-hydroxyproline were prepared and added in the same volume to the cells, further cultured for 3 days and used for the experiment. Meanwhile, as a control group, the same volume of water was added.
3 days after the addition of a solution of test compound, the medium was removed by suction. Eagle's-MEM containing the solution of 10% alamarBlue (trade name: BIOSOURCE, manufactured by Biosource International) was added and the reaction was allowed to occur at 37° C. Thirty minutes later, the fluorescence was measured with excitation wavelength of 544 nm and measurement wavelength of 590 nm. By having the obtained number as a relative value of the cell number, the ratio of number of cells (i.e. % number of cells) for a group added with the test compound compared to a group not added with the test compound (i.e. only the solvent was added) was calculated. Higher % number of cells indicates lower cell toxicity. When it is less than 80%, it was determined as “toxic.”
(§3) The equal amounts of 4-trans-L-hydroxyproline and 4-cis-D-hydroxyproline were mixed to produce the mixture solution of 4-trans-L-hydroxyproline and 4-cis-D-hydroxyproline, which was then provided for the experiments. Cell culture and quantification and evaluation of number of the cells and melanin were carried out in the same manner as the Examples above.
(§4) By using the mixture solution in which 4-trans-L-hydroxyproline and 4-cis-D-hydroxyproline were mixed at various ratio, test for determining cell growth and melanin content reduction was carried out. Cell culture and quantification and evaluation were carried out in the same manner as the Examples above.

Mouse B16 melanoma cell [2] = test: Quantification of melanin (melanin content ratio, absorbance at 475 nm); type: cell-based; settings: for effect on reducing melanin content (conclusion): 3.33 ppm up to 2690 ppm
Description: as §1, §2
The medium was removed by suction. After washing three times with the buffer (phosphate buffer solution 50 mM, pH 6.8), the cells were lysed by addition of 1 N NaOH, and the absorbance was measured at 475 nm. By having the obtained value as a relative value of the melanin content, the ratio of melanin content (%) for a group added with the test compound compared to a group not added with the test compound (i.e. only the solvent was added) was calculated. Lower ratio of melanin content means the higher inhibition effect on melanin production.
By using the measured value of melanin content that was obtained according to the measurement method above, percentage ratio of the melanin content was calculated by dividing the melanin content in the cells added with 4-trans-L-hydroxyproline, 4-trans-D-hydroxyproline, 4-cis-L-hydroxyproline, or 4-cis-D-hydroxyproline by the melanin content in the cells for control experiment, and the resulting value was taken as a ratio of melanin content.
as §3, §4

[3] = test system: Chinese hamster V79 cells; settings: cited from earlier work
[4] = FIG. 2, 100 ppm single compound, duplicate

Structure (SMILES)	number of cells when the control was represented as 100% (Mouse B16 melanoma cell [1]; FIG. 1, 3.33 ppm, 3 days) [%]	number of cells when the control was represented as 100% (Mouse B16 melanoma cell [1]; FIG. 1, 11.1 ppm, 3 days) [%]	number of cells when the control was represented as 100% (Mouse B16 melanoma cell [1]; FIG. 1, 33.3 ppm, 3 days) [%]	number of cells when the control was represented as 100% (Mouse B16 melanoma cell [1]; FIG. 1, 333 ppm, 3 days) [%]	concentration up to which the number of cells was not significantly different from the control (no effect on survival) (Mouse B16 melanoma cell [1]; FIG. 1, 3 days)	number of cells when the control was represented as 100% (Mouse B16 melanoma cell [1]; FIG. 3, 333 ppm, duplicate) [%]	effect on reducing melanin content (conclusion) (Mouse B16 melanoma cell [2]; FIG. 1)	melanin content ratio (Mouse B16 melanoma cell [2]; FIG. 1, 3.33 ppm, 3 days) [%]	melanin content ratio (Mouse B16 melanoma cell [2]; FIG. 1, 11.1 ppm, 3 days) [%]	melanin content ratio (Mouse B16 melanoma cell [2]; FIG. 1, 33.3 ppm, 3 days) [%]	melanin content ratio (Mouse B16 melanoma cell [2]; FIG. 1, 333 ppm, 3 days) [%]	melanin content ratio (Mouse B16 melanoma cell [2]; FIG. 2, 33.3 ppm, duplicate) [%]	melanin content ratio (Mouse B16 melanoma cell [2]; FIG. 2, 50 ppm, duplicate) [%]	melanin content ratio (Mouse B16 melanoma cell [2]; [4]) [%]	melanin content ratio (Mouse B16 melanoma cell [2]; FIG. 2, 333 ppm, duplicate) [%]	melanin content ratio (Mouse B16 melanoma cell [2]; FIG. 3, 333 ppm, duplicate) [%]	number of cells when the control was represented as 100% (Mouse B16 melanoma cell [1]; FIG. 2, 33.3 ppm, duplicate) [%]	number of cells when the control was represented as 100% (Mouse B16 melanoma cell [1]; FIG. 2, 50 ppm, duplicate) [%]	number of cells when the control was represented as 100% (Mouse B16 melanoma cell [1]; [4]) [%]	number of cells when the control was represented as 100% (Mouse B16 melanoma cell [1]; FIG. 2, 333 ppm, duplicate) [%]	other results
O=C(O)[C@H]1C[C@@H](O)CN1 (stereo in doubt) [4-cis-D-hydroxyproline]	97	98	101	92	≤ 333 ppm	88	effect on reducing melanin content in a concentration-dependent manner	100	98	96	32	90	85	72	32	37	–	–	–	–	number of cells when the control was represented as 100% (Mouse B16 melanoma cell [1]; FIG. 3, 33.3 ppm, duplicate): 93%; number of cells when the control was represented as 100% (Mouse B16 melanoma cell [1]; FIG. 3, 50 ppm, duplicate): 92%; number of cells when the control was represented as 100% (Mouse B16 melanoma cell [1]; FIG. 3, 100 ppm, duplicate): 91%; inhibition of melanin synthesis / melanin content (conclusion) (Mouse B16 melanoma cell [2]; FIG. 2, 4-cis-D starting from 33.3 ppm, mixture with same amount of 4-cis-D): prominently inhibit melanin synthesis in a concentration-dependent manner; melanin content ratio (Mouse B16 melanoma cell [2]; FIG. 3, 33.3 ppm, duplicate): 92%; melanin content ratio (Mouse B16 melanoma cell [2]; FIG. 3, 50 ppm, duplicate): 84%; melanin content ratio (Mouse B16 melanoma cell [2]; FIG. 3, 100 ppm, duplicate): 75%
O=C(O)[C@@H]1C[C@H](O)CN1 (stereo in doubt) [4-cis-L-hydroxyproline]	93	92	84	–	up to 33.3 ppm	–	effect on reducing melanin content in a concentration-dependent manner	92	83	30	–	–	–	–	–	–	97	93	95	89	–
O=C(O)[C@H]1C[C@H](O)CN1 (stereo in doubt) [4-trans-D-hydroxyproline]	98	100	101	105	–	–	no effect on reducing melanin content	97	99	99	101	–	–	–	–	–	–	–	–	–	number of cells when the control was represented as 100% (Mouse B16 melanoma cell [1]; FIG. 1, 2690 ppm, 3 days): 109%; melanin content ratio (Mouse B16 melanoma cell [2]; FIG. 1, 2690 ppm, 3 days): 110%
O=C(O)[C@@H]1C[C@@H](O)CN1 (stereo in doubt) [4-trans-L-hydroxyproline]	95	103	99	101	–	100	no effect on reducing melanin content	103	108	105	104	103	104	108	112	103	95	100	98	102	number of cells when the control was represented as 100% (Mouse B16 melanoma cell [1]; FIG. 1, 2690 ppm, 3 days): 94%; number of cells when the control was represented as 100% (Mouse B16 melanoma cell [1]; FIG. 3, 480 ppm, duplicate): 96%; number of cells when the control was represented as 100% (Mouse B16 melanoma cell [1]; FIG. 3, 666 ppm, duplicate): 102%; number of cells when the control was represented as 100% (Mouse B16 melanoma cell [1]; FIG. 3, 1332 ppm, duplicate): 99%; melanin content ratio (Mouse B16 melanoma cell [2]; FIG. 1, 2690 ppm, 3 days): 107%; melanin content ratio (Mouse B16 melanoma cell [2]; FIG. 3, 480 ppm, duplicate): 99%; melanin content ratio (Mouse B16 melanoma cell [2]; FIG. 3, 666 ppm, duplicate): 107%; melanin content ratio (Mouse B16 melanoma cell [2]; FIG. 3, 1332 ppm, duplicate): 102%
Oc1ccc(O)cc1 [Hydroquinone, hydroquinone]	–	–	–	–	–	–	–	–	–	–	–	–	–	–	–	–	–	–	–	–	mutagenic activity [3]: mutagenic activity
